We go through 17 compounds from ChEMBL document CHEMBL3431459, “Roche carnitine palmitoyltransferase modulator screening data (supplementary data associated with the publication CHEMBL2216752)”.

pIC50: −log10 of the molar value.

In assay [1] the target is T1, Carnitine O-palmitoyltransferase 1, muscle isoform (Homo sapiens, UniProt Q92523).
T1 sequence (Q92523 whole entry): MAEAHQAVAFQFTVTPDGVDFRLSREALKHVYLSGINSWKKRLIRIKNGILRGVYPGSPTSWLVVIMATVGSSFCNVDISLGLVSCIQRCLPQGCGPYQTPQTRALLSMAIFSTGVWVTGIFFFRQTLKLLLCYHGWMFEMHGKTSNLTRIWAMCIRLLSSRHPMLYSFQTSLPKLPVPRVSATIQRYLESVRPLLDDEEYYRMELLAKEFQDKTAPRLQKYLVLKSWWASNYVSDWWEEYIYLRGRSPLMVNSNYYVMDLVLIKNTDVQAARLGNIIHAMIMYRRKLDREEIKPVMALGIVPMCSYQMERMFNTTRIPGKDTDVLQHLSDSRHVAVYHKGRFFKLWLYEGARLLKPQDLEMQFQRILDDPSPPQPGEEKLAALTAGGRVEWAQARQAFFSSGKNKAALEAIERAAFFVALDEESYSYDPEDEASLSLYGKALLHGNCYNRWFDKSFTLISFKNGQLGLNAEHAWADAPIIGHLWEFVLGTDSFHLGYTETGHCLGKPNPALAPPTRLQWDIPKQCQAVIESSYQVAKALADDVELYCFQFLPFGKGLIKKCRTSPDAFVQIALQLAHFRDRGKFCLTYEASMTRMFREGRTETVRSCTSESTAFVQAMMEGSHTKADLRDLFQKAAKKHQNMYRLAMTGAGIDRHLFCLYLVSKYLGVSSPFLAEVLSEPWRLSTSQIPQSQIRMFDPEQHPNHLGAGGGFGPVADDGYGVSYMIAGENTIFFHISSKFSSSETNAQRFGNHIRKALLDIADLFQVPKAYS
Briefly: SUPPLEMENTARY: Inhibition of Carnitine palmitoyltransferase 1, muscle isoform. Also on record: species or system Muscle tissue.

The target of assay [2] is T2, Carnitine O-palmitoyltransferase 2, mitochondrial (Homo sapiens, UniProt P23786).
T2 sequence (P23786 whole entry): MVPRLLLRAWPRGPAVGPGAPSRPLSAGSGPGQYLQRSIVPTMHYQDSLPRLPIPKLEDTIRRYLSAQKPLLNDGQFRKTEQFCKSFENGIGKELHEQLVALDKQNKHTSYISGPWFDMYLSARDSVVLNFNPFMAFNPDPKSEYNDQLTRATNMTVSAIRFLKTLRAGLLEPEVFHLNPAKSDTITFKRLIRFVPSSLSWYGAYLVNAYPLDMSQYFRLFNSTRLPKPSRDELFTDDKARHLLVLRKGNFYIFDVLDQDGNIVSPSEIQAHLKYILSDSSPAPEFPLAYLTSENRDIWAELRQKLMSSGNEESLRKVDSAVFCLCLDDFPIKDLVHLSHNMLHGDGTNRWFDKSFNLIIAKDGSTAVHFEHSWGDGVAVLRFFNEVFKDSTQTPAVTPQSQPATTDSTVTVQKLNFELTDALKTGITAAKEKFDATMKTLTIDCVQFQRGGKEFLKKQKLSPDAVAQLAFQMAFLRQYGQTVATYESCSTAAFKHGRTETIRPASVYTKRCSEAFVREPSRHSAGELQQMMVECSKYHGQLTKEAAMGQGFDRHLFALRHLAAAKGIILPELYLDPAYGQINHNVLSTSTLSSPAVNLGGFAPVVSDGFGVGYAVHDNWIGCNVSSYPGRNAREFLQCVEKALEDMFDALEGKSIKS
Nature of the assay: (§1) SUPPLEMENTARY: Inhibition of Carnitine palmitoyltransferase 2.

The target in assay [3] is T3, Carnitine O-palmitoyltransferase 2, mitochondrial (Rattus norvegicus, UniProt P18886).
T3 sequence (P18886 whole entry): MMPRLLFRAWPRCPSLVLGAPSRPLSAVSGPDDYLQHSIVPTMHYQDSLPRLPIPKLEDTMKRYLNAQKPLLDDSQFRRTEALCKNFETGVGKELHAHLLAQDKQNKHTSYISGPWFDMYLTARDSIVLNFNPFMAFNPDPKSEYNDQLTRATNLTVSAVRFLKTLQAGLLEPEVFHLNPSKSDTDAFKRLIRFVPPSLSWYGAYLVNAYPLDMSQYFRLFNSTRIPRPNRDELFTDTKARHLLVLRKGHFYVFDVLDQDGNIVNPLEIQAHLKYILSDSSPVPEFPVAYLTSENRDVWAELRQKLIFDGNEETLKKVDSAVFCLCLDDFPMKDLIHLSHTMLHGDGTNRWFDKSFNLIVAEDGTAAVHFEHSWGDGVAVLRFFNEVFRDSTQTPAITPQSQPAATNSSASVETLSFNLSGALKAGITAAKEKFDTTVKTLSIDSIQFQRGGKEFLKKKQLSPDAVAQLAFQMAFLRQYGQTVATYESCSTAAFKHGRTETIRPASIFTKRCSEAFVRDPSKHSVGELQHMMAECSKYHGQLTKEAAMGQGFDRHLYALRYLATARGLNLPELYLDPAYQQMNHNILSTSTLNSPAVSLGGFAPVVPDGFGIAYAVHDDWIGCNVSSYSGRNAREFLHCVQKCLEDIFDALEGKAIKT
Described as §1.

Assay [4] deals with T4, Carnitine O-palmitoyltransferase 1, liver isoform (Homo sapiens, UniProt P50416).
T4 sequence (P50416 whole entry): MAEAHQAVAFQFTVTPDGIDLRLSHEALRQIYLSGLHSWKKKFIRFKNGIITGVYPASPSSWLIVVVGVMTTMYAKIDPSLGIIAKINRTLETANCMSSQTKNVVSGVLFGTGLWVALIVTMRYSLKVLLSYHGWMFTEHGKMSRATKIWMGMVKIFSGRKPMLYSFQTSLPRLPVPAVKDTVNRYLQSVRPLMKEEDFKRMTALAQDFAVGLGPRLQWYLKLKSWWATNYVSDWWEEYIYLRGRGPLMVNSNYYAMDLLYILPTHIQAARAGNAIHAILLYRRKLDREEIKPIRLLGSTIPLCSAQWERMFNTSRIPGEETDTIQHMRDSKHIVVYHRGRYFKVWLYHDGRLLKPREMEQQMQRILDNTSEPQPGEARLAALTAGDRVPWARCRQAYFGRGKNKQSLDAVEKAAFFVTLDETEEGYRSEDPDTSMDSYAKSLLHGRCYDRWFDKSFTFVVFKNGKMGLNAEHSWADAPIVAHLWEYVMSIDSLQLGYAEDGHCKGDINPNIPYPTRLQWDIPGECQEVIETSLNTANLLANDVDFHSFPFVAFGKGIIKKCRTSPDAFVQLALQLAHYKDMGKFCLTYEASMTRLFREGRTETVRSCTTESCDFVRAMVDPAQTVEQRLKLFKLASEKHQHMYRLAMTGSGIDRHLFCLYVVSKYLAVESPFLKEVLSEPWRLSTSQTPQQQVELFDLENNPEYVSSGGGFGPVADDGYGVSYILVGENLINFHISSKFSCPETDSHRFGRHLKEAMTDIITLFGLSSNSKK
Briefly: (§2) SUPPLEMENTARY: Inhibition of Carnitine palmitoyltransferase 1, liver isoform.

Assay [5] addresses T5, Carnitine O-palmitoyltransferase 1, liver isoform (Rattus norvegicus, UniProt P32198).
T5 sequence (P32198 whole entry): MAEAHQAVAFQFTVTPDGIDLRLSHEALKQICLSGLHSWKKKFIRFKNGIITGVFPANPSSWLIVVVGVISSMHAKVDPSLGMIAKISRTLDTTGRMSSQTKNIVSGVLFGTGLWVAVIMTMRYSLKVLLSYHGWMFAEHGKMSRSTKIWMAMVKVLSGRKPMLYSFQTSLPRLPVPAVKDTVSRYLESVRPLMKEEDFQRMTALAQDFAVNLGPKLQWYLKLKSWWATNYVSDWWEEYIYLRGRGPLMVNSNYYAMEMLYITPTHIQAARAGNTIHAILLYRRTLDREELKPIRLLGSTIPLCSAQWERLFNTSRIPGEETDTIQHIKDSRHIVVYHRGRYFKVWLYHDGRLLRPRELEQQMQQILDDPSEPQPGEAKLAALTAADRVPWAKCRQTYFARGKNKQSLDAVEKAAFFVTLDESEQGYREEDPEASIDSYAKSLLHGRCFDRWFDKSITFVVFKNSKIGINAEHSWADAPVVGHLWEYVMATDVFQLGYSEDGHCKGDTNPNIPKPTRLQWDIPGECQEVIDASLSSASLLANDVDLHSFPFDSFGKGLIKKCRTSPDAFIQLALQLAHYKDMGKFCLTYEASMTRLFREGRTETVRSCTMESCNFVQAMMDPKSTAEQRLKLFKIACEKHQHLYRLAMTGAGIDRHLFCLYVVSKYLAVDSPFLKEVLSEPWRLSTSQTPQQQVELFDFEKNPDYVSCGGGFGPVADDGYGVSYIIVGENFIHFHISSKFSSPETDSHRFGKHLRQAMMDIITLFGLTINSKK
Described as §2.

`Cc1ccnc(N2CCN(C(=O)[C@H]3CCCCN3C(=O)COc3ccccc3)CC2)c1`: the pIC50 is 4.50 in assay [1]; 6.23 in assay [2]; 5.90 in assay [3]; 6.91 in assay [4]; 6.71 in assay [5].

In the case of `O=C(COc1ccccc1)OCc1cc(-c2nc([C@H]3CCCCN3C(=O)COc3ccccc3)cs2)ccn1`, the pIC50 in assay [1] is 4.75; in assay [2], 4.35; in assay [3], below 4.00; in assay [4], 6.30; in assay [5], 5.98.

Turning to `COc1ccc(Cl)cc1[S+]([O-])c1c[nH]c2ccc(C(=O)Nc3ccccc3)cc12` (centres undefined), the pIC50 in assay [1] is below 4.00; in assay [2], below 4.00; in assay [3] it was below 4.00; in assay [4] it was below 5.00; in assay [5], below 5.00.

As for `O=C1CCC(=O)N1c1cc(F)cc(-c2noc([C@H]3CCCCN3C(=O)COc3ccccc3)n2)c1`, the pIC50 in assay [1] was below 4.00; in assay [2], 4.79; in assay [3], below 4.00; in assay [4] it was 7.12; in assay [5], 6.41.

As for `COc1ccc(Cl)cc1S(=O)(=O)N1CCSc2ccc(C(=O)Nc3ccc(C(=O)O)c(Cl)c3)cc21`, the pIC50 in assay [1] was 5.82; in assay [2] it was 5.36; in assay [3] it was 4.98; in assay [4], 7.06; in assay [5], 6.91.

Regarding `O=C(COc1ccccc1)N1CCCC[C@@H]1c1noc(-c2cc(F)c(F)cc2F)n1`, the pIC50 in assay [1] was below 4.00; in assay [2], below 4.00; in assay [3], below 4.00; in assay [4], 6.81; in assay [5] it was 6.76.

On to `CCCN(c1cc(C(=O)Nc2ccn(CC(=O)O)n2)cc2c1OCO2)S(=O)(=O)c1cc(Cl)ccc1OC`, for which the pIC50 in assay [1] is 5.75; in assay [2] it was below 4.00; in assay [3], below 4.00; in assay [4], 6.49; in assay [5], 6.60.

`O=C(COc1ccccc1)N1CCCC[C@@H]1c1nnn(-c2ccc(F)cc2)n1`: the pIC50 in assay [1] was below 4.00; in assay [2], below 4.00; in assay [3] it was below 4.00; in assay [4] it was 6.70; in assay [5], 6.59.

In the case of `O=C([C@H]1CCCCN1C(=O)COc1ccccc1)N1CCN(c2ccccn2)CC1`, the pIC50 in assay [1] is below 4.00; in assay [2], 5.99; in assay [3], 5.47; in assay [4], 6.62; in assay [5] it was 6.23.

On to `O=C([C@H]1CCCCN1C(=O)COc1ccccc1)N1CCN(c2ncccn2)CC1`, for which the pIC50 was below 4.00 in assay [1]; 5.81 in assay [2]; 5.58 in assay [3]; 6.78 in assay [4]; 6.49 in assay [5].

On to `O=C(COc1ccccc1)N1CCCC[C@@H]1c1nc(-c2ccc(Cl)cc2)cs1`, for which the pIC50 in assay [1] is below 4.00; in assay [2] it was below 4.00; in assay [3] it was below 4.00; in assay [4] it was 5.86; in assay [5], 5.91.

On to `Nc1ccc(-c2n[nH]c([C@H]3CCCCN3C(=O)COc3ccccc3)n2)cn1`, for which the pIC50 was 4.10 in assay [2], 4.04 in assay [3], 6.49 in assay [4] and 6.12 in assay [5].

As for `O=C1CN(NC(=O)c2cccc(-c3n[nH]c([C@H]4CCCCN4C(=O)COc4ccccc4)n3)c2)C(=O)N1`, the pIC50 in assay [1] was below 4.00; in assay [2] it was 4.71; in assay [4], 6.56; in assay [5] it was 6.24.

Regarding `COc1ccc(Cl)cc1S(=O)(=O)N1COc2c(OC)cc(C(=O)Nc3ccc(C(=O)O)cc3)cc21`, the pIC50 was 4.54 in assay [1], 6.11 in assay [2], 5.67 in assay [3] and 6.28 in assay [4].

As for `Cc1cc(C)cc(S(=O)(=O)N2CCOc3ccc(C(=O)Nc4ccc(C(=O)O)c(F)c4)cc32)c1`, the pIC50 in assay [1] was 5.57; in assay [2], 5.69; in assay [4], 6.60; in assay [5], 7.15.

For `O=C([C@H]1CCCCN1C(=O)COc1ccccc1)N1CCc2ccc([N+](=O)[O-])cc2C1`, the pIC50 in assay [1] is below 4.00; in assay [2] it was 5.79; in assay [3], 5.55; in assay [4], 6.19.

Take `O=C(COc1ccccc1)N1CCCCC1c1ncc(-c2cccc([N+](=O)[O-])c2)s1` (centres undefined): the pIC50 in assay [1] is below 4.00; in assay [2], below 4.00; in assay [4], 6.69; in assay [5], 6.02.
